Article PMC12108296, “Physicochemical Characterization of Kynurenine Pathway Metabolites” (Antioxidants, 2025)
Several values for one entry are separate records, joined by “and”; a condition that tells them apart may be missing. Equal values may be shown once. Read-outs that look alike come from different tables or passages of the source.

How the values were obtained:
[1] = pH-potentiometric titration (pKa); format: physicochemical
Protocol: An ECO automatic titrator (Metrohm AG, Herisau, Switzerland) with a Metrohm 6.0234.110 combined pH glass electrode was used for the potentiometric titrations under automatic PC control. The electrode was calibrated with aqueous standard buffer solutions. Constant temperature (298.15 ± 0.1 K) was provided by a thermostated double-walled glass cell. Difference titrations were carried out in the absence (blank) and presence of the titrand. First, 2 mL of 0.1 mol/L HCl solutions were titrated with 0.1 mol/L KOH. A constant ionic strength of 0.15 mol/L was provided by the presence of KCl. Next, a titrand was added to the same volume of HCl solution and subsequently titrated with KOH. The initial concentration of the titrand was around between 3 and 6 mmol/L in the titrations. Non-linear parameter fitting provided the dissociation constants from the interpolated volume differences. Potentiometric titrations were performed in triplicates, and the resulting pKa values are reported with ± standard error of the three fitted values.

[2] = 1H NMR-pH titration (macroscopic and microscopic pKa); format: physicochemical; conditions: for pKa: H2O/D2O 95:5 (v/v); for predominant protonation/charge form at physiological pH: physiological pH (7.4), from the determined acid-base constants; for pKaC^A (NMR): second step dissociation microconstant of the aromatic ammonium group; for pKaA^C (NMR): second step dissociation microconstant of the carboxyl group
Protocol: NMR spectra were recorded on a 400 MHz Varian Mercury Plus spectrometer equipped with a 5 mm Varian 400 Automation Triple Resonance Broadband Pulsed Field Gradient probe at 298.15 ± 0.1 K. The solvent was H2O/D2O 95:5 (v/v), the solution contained around 5 mmol/L titrand, and the ionic strength was adjusted to 0.15 mol/L. The pH values were adjusted with 2–5 mol/L HCl or NaOH (in order to avoid substantial dilution of the solution) and determined in situ by internal indicator molecules optimized for ^1H NMR [27, 28]. The sample volume was 500 μL containing DSS (3-(trimethylsilyl)propane-1-sulfonate) as a chemical shift reference. The H2O ^1H signal was suppressed with a WET sequence; the average acquisition parameters for ^1H measurements are number of transients = 8, number of points = 65,536, acquisition time = 3.33 s, and relaxation delay = 1.5 s. All spectra were processed using the MestReNova v9.0.1-13254 (Mestralab Research, S.L., Santiago de Compostela, Spain) software. NMR-pH titrations were performed once, and resulting pKa values are reported with ± standard error of the model fit.
The corollary of this assumption is not so obvious, however: the aliphatic ^1H NMR signals are relatively close to the aromatic amino group (in terms of covalent distance), especially the methylene group (5 covalent distance), therefore selectivity of aliphatic ^1H NMR signals in favor of aliphatic ammonium and carboxyl dissociation is dubious. This, however, can be exploited: the titration curve of the methylene group thus affords all three macroconstants, including Ka1, Ka2 in the acidic region (Equation (1)), while the aromatic and αCH ^1H NMR signals selectively afford the microconstants KaC^A (second step dissociation microconstant of the aromatic ammonium group), KaA^C (second step dissociation microconstant of the carboxyl group) (Equation (2)). […] Note that Equation (2) in its current form applies to the titration curves of the aromatic signals; for the αCH signal, Equation (2) is rewritten with KaC^A and KaA^C exchanged. For the curve fitting of Equation (2), the macroconstants are treated as fixed parameters transferred from the fitting of Equation (1).(1) δobs=δL+δHL·Ka2·10^−pH+δH2L·Ka1·Ka2·10^−2·pH/1+Ka2·10^−pH+Ka1·Ka2·10^−2·pH (2) δobs=δL·1+KaCA·10^−pH+δHL·KaAC·10^−pH+Ka1·Ka2·10^−2·pH/1+Ka2·10^−pH+Ka1·Ka2·10^−2·pH
The remaining dissociation microconstants (Ka^C and Ka^A) were calculated using Equation (3). Modern theoretical considerations of acid-base microconstant determination can be found in the works of Noszál and Borkovec, while some examples can be found in recent works.(3) pKa1+pKa2=pKaA+pKaAC=pKaC+pKaCA
The titration of 3-hydroxykynurenine (Figure 5) was treated the same way as for kynurenine, with the difference that 3-hydroxykynurenine has an overlapping dissociation in the basic pH region as well (the primary aliphatic ammonium dissociation overlaps with the dissociation of the phenol group). The same principle can be applied to the macro- and microconstant determination of kynurenine; only the last two macroconstants were transferred from potentiometric titration data since the latter is more precise than NMR-pH determined values and the chemical shift response of the methylene group towards the phenol dissociation (6 covalent distance) is not expected to be reliable. Otherwise, the microconstants of the basic pH range (KaACN^O—phenol group, KaACO^N—primary aliphatic ammonium group) were determined by fitting an analog (featuring Ka3 and Ka4) of Equation (2) to the titration data of all ^1H NMR signals. Note that the fitted pKaACN^O falls very close to the calculated pKaAC^N; therefore, to ensure a decreasing sequence of Ka values in every microscopic protonation pathway, an additional constraint was used during fitting: pKaACN^O be greater than the mean of pKa3 and pKa4. […]

[3] = UV-pH titration (pKa); format: physicochemical; conditions: for pKa: aqueous HCl/NaOH solutions of varying pH
Protocol: UV spectroscopic measurements were carried out on a Jasco V-550 diode-array spectrometer (Jasco Ltd., Tokyo, Japan) with 10 mm quartz cuvettes at 298 K. The titrand was diluted with an acidic (HCl) and a basic (NaOH) stock solution to the same analyte concentration (adjusting ionic strength to 0.15 mol/L). In the case of kynurenic acid, a saturated acidic solution was diluted 10 times with HCl and NaOH, respectively, to obtain the stock solutions. Sample solutions with varying pH were prepared by mixing the two stock solutions in varying ratios. pH values were read on a Metrohm 2.780.0010 precision pH meter with a 6.0258.600 Unitrode glass Pt 1000 electrode (Metrohm AG, Herisau, Switzerland), and the pH-potentiometric system was calibrated using standard buffer solutions.

[4] = cited from earlier work; for pKa (first value) / pKa (second value): no mention of experimental methods
[5] = tested on: ROS; design: method as in PMID 21763768; conditions: cited from earlier work
[6] = in vitro parallel permeability assay (PAMPA); format: in vitro ADME; conditions: passive transport only
Protocol: To further obtain additional information regarding the microspeciation scheme, the synthesis of methyl ester derivatives was attempted since these model compounds could provide the value of microconstants for cases where the carboxylic acid group is undissociated. […] In the first attempt, the compounds were each dissolved with 1-ethyl-3-(3-dimethylaminopropyl)carbodiimide (EDAC) and triethylamine in dichloromethane, and after fifteen minutes, methanol was added to the mixture, which was stirred overnight at room temperature. After this, the solution was washed with saturated sodium bicarbonate solution and distilled water. The organic phase was dried over sodium sulfate and then removed from the rotary evaporator. In the second attempt, the compounds were each dissolved in methanol, and the solution was cooled to 0 °C. Thionyl chloride was added dropwise, and the mixture was stirred at the same temperature for four hours. Then, the solvent was removed from the rotary evaporator, yielding an oily residue. […] The measurement of lipophilicity and membrane penetration of kynurenine and 3-hydroxykynurenine was also attempted; however, due to the extremely low predicted logP value of these compounds, it was not unexpected that obtaining such experimental data would not be feasible. […]

[7] = aqueous HCl solution with KCl, titrated with KOH, unreliable, since two values could not be fitted, read-out: single pKa fitted in the acidic pH region (pH potentiometry titration)
[8] = first step microconstant of the aromatic ammonium group, calculated using Equation (3), read-out: pKa^A
[9] = first step microconstant of the carboxyl group, calculated using Equation (3), read-out: pKa^C
[10] = macroconstant from methylene signal, 298.15 K, ionic strength 0.15 mol/L, read-out: pKa1 (NMR)
[11] = macroconstant from methylene signal, 298.15 K, ionic strength 0.15 mol/L, read-out: pKa2 (NMR)

Nc1c(O)cccc1C(=O)CC(N)C(=O)O (stereo not shown) [3-hydroxykynurenine]
pKa ([1]; aqueous HCl solution with KCl, titrated with KOH, macroconstant, 298.15 K, ionic strength 0.15 mol/L, read-out: pKa3 (potentiometry)): 8.65 | pKa ([1]; aqueous HCl solution with KCl, titrated with KOH, macroconstant, 298.15 K, ionic strength 0.15 mol/L, read-out: pKa4 (potentiometry)): 9.55 | pKa [1, 7]: 2.53 ± 0.03 | pKa [2, 8]: 1.82 | pKa [2, 9]: 1.91 | pKa [2, 10]: 1.56 | pKa [2, 11]: 2.69 | pKaAC^N ([2]; microconstant of the aliphatic ammonium group, phenol still protonated, calculated): 9.08 | pKaAC^O ([2]; microconstant of the phenol group, aliphatic ammonium still protonated, calculated): 8.85 | pKaACN^O (NMR) ([2]; microconstant of the phenol group, basic pH range, fit constrained to exceed mean of pKa3 and pKa4): 9.12 | pKaACO^N (NMR) ([2]; microconstant of the primary aliphatic ammonium group, basic pH range): 9.35 | predominant protonation/charge form at physiological pH [2]: zwitterionic form | pKaC^A (NMR) [2]: 2.34 | pKaA^C (NMR) [2]: 2.43

O=C(O)c1cc(=O)c2ccccc2[nH]1 [kynurenic acid]
pKa ([1]; aqueous HCl solution with KCl, titrated with KOH, value is unreliable due to precipitate formation, read-out: pKa fitted (pH potentiometry titration)): 3.1 ± 0.1 | solubility behaviour during titration ([1]; below pH 3, no issue above pH 3): precipitation | dissociation step above pH 7 until 13 ([2]; potentiometric and NMR-pH titration attempts): no dissociation step | pKa ([3]; 10-fold diluted saturated solution, 298 K, ionic strength 0.15 mol/L, read-out: pKa (UV-pH titration, full spectrum measurement)): 2.44 ± 0.02 | pKa ([3]; single dissociation step, UV-pH titration, 298 K, ionic strength 0.15 mol/L, read-out: pKa1 (UV)): ~2.4 | pKa1 (UV) ([3]; single dissociation step, UV-pH titration, 298 K, ionic strength 0.15 mol/L): 2.43 | pKa of the radical form ([4]; radical form): 5.5 | concentration that can abolish iron(II) sulfate-induced ROS production [5]: exceeding 100 µM

Nc1ccccc1C(=O)C[C@H](N)C(=O)O [kynurenine]
pKa ([1]; aqueous HCl solution with KCl, titrated with KOH, 298.15 K, ionic strength 0.15 mol/L, read-out: pKa fitted in the basic pH region (pH potentiometry titration)): 9.13 ± 0.02 | pKa [1, 7]: 2.39 ± 0.04 | pKa [2, 8]: 1.39 | pKa [2, 9]: 1.63 | pKa [2, 10]: 1.19 | pKa [2, 11]: 2.49 | pKa ([2]; macroconstant, aliphatic ammonium, 298.15 K, ionic strength 0.15 mol/L, read-out: pKa3 (NMR)): 9.33 | predominant protonation/charge form at physiological pH [2]: zwitterionic form | pKaC^A (NMR) [2]: 2.05 ± 0.04 and 2.05 | pKaA^C (NMR) [2]: 2.29 ± 0.03 and 2.29 | pKaC^A (UV-pH titration) ([3]; second step dissociation microconstant of the aromatic ammonium group): 2.08 ± 0.2 | pKaA^C (UV-pH titration) ([3]; second step dissociation microconstant of the carboxyl group): 2.33 ± 0.05 | membrane penetration/retention (PAMPA) [6]: no detectable membrane penetration/retention

O=C(O)c1ccccn1 [picolinic acid]
pKa ([1]; aqueous HCl solution with KCl, titrated with KOH, triplicate, ± standard error, 298.15 K, ionic strength 0.15 mol/L, read-out: pKa2 (potentiometry)): 5.22 ± 0.01 | pKa ([1]; aqueous HCl solution with KCl, titrated with KOH, extreme acidic pKa of the carboxyl group, rough estimate, single nonlinear curve fit, 298.15 K, ionic strength 0.15 mol/L, read-out: pKa1 (by extrapolation of potentiometry)): ~0.63 | pKa ([1]; aqueous solution, ionic strength 0.15 mol/L, both titration techniques, 298.15 K, ionic strength 0.15 mol/L, read-out: pKa2 (mean of potentiometry and NMR)): ~5.2 | pKa2 (mean of potentiometry and NMR) ([1]; both titration techniques, 298.15 K, ionic strength 0.15 mol/L): 5.21 | pKa1 (by extrapolation of potentiometry) ([1]; extreme acidic pKa of the carboxyl group, rough estimate, single nonlinear curve fit, 298.15 K, ionic strength 0.15 mol/L): ~0.6 | pKa ([2]; ± standard error of fit, 298.15 K, ionic strength 0.15 mol/L, H2O/D2O 95:5, read-out: pKa (NMR-pH titration)): 5.19 ± 0.02 | pH of a further dissociation step indicated by shift of NMR signals ([2]; slight systematic shift below pH 1.5, outside the range of determination): < 1 | pKa (first value) ([4]; ref 25): 1.0 | pKa (second value) ([4]; ref 25): 5.4 | pKa (first value) ([4]; ref 26): 1.07 | pKa (second value) ([4]; ref 26): 5.25
